The subject of one assay is Caki-2 cells. Description: CTG (CellTiter-Glo) cell viability assay, Caki-2. As to conditions: Homo sapiens, CAKI-2, 72 h, Caki-2, 3-day; read-out: CTG Chempartner/PHA- Caki-2 3-day: Average external-IC50. The format is cell-based. As to the method: (§1) Compound-mediated viability effect on MOLT-4 and Caki-2 was quantitatively determined using the CellTiter-Glo® Luminescent Cell Viability Assay kit from Promega (Catalog number G7570) following manufacturer's recommended procedures. Briefly, MOLT-4 and Caki-2 cells were seeded into 384 well plates (Grenier Bio-One, Catalog number 781080) with a density of 10,000 cells per well. Compounds were then added to the assay plate with final top concentration of 10 µM and 1:3 dilution series with total of 9 doses. The final DMSO concentration is normalized to 0.2%. The assay plates were incubated at 37° C. for 3 days under 5% CO2. Then the assay plate was equilibrated at room temperature for 10 minutes. To determine cell viability, 30 uL CellTiter Glo reagent was added to each well and the assay plate was centrifuged at 1000 rpm for 30 second, incubated at room temperature for 10 min, and analyzed by detecting the luminescence using a multimode plate reader (EnVision 2105, PerkinElmer). The data was then analyzed by software Prism 7.0 from GraphPad and the dose response curves are fit using a three-parameter logistic equation to calculate IC50.
(§2) The letter codes for MOLT-4 IC50 include: A (<0.1 μM); B (0.1-1.0 μM); C (>1.0-3.0 μM); and D (>3.0 μM). The letter codes for Caki-2 IC50 include: A (<5 μM); B (5-10 μM); C (>10-30.0 μM); and D (>30.0 μM).
Background: In ATP-based viability assays light output follows the ATP content of the culture.

For another assay, the system named is MOLT-4 cells. Briefly: CTG (CellTiter-Glo) cell viability assay, MOLT-4. The format is cell-based. As to conditions: MOLT-4, 3 day, read-out: CTG Cell Viability Assay - MOLT-4 3 day: Average external-IC50. As to the method: as §1, §2

Where two headings read alike, the source gives them in different places.

Take `Cc1ncsc1-c1ccc([C@H](C)NC(=O)[C@@H]2C[C@@H](N)CN2C(=O)[C@@H](NC(=O)C2CCN(CCCNc3ccc(S(=O)(=O)NC(=O)c4ccc(N5CCC([C@H](O)c6ccccc6-c6ccc(Cl)cc6)CC5)cc4Oc4cnc5[nH]ccc5c4)cc3S(=O)(=O)C(F)(F)F)CC2)C(C)(C)C)cc1` [I-92]: the IC50 in the assay on Caki-2 cells is more than 30000 nM; with MOLT-4 cells (Homo sapiens, MOLT-4, 72 h), more than 3000 nM.
In the same order, the values of `Cc1ncsc1-c1ccc([C@H](C)NC(=O)[C@@H]2C[C@@H](O)CN2C(=O)[C@@H](NC(=O)CCCCCCC(=O)N2CCN(C[C@]3(C)CCC(c4ccc(Cl)cc4)=C(CN4CCN(c5ccc(C(=O)NS(=O)(=O)c6ccc(NCCN7CCOCC7)c(S(=O)(=O)C(F)(F)F)c6)c(Oc6cnc7[nH]ccc7c6)c5)CC4)C3)CC2)C(C)(C)C)cc1` [I-93] are more than 30000 nM and 1000 to 3000 nM.
With `Cc1ncsc1-c1ccc([C@H](C)NC(=O)[C@@H]2C[C@@H](O)CN2C(=O)[C@@H](NC(=O)CCCCCC(=O)N[C@@H]2CCN(CCCNc3ccc(S(=O)(=O)NC(=O)c4ccc(N5CCN(CC6=C(c7ccc(Cl)cc7)CC(C)(C)CC6)CC5)cc4Oc4cnc5[nH]ccc5c4)cc3S(=O)(=O)C(F)(F)F)C2)C(C)(C)C)cc1` [I-95], the IC50 is more than 30000 nM in the assay with Caki-2 cells and more than 3000 nM in the assay on MOLT-4 cells (Homo sapiens, MOLT-4, 72 h).
In the same order, the values of `Cc1ncsc1-c1ccc([C@H](C)NC(=O)[C@@H]2C[C@@H](O)CN2C(=O)[C@@H](NC(=O)CCCCCC(=O)N[C@H]2CCN(CCCNc3ccc(S(=O)(=O)NC(=O)c4ccc(N5CCN(CC6=C(c7ccc(Cl)cc7)CC(C)(C)CC6)CC5)cc4Oc4cnc5[nH]ccc5c4)cc3S(=O)(=O)C(F)(F)F)C2)C(C)(C)C)cc1` [I-96] are more than 30000 nM and 100 to 1000 nM.
Turning to `Cc1ncsc1-c1ccc([C@H](C)NC(=O)[C@@H]2C[C@@H](O)CN2C(=O)[C@@H](NC(=O)CCCCCC(=O)N2CCN(CCNc3ccc(S(=O)(=O)NC(=O)c4ccc(N5CCN(CC6=C(c7ccc(Cl)cc7)CC(C)(C)CC6)CC5)cc4Oc4cnc5[nH]ccc5c4)cc3S(=O)(=O)C(F)(F)F)CC2)C(C)(C)C)cc1` [I-97], the IC50 is more than 30000 nM in the assay on Caki-2 cells and more than 3000 nM with MOLT-4 cells (Homo sapiens, MOLT-4, 72 h).
Consider `Cc1ncsc1-c1ccc([C@H](C)NC(=O)[C@@H]2C[C@@H](O)CN2C(=O)[C@@H](NC(=O)CCCCCC(=O)N2CCN(c3ccc(-c4ccc(Cl)cc4)c(CN4CCN(c5ccc(C(=O)NS(=O)(=O)c6ccc(NCCCN(C)C)c(S(=O)(=O)C(F)(F)F)c6)c(Oc6cnc7[nH]ccc7c6)c5)CC4)c3)CC2)C(C)(C)C)cc1` [I-99], for which the IC50 in the assay on Caki-2 cells was more than 30000 nM; with MOLT-4 cells (Homo sapiens, MOLT-4, 72 h), more than 3000 nM.
Take `Cc1ncsc1-c1ccc([C@H](C)NC(=O)[C@@H]2C[C@@H](O)CN2C(=O)[C@@H](NC(=O)CCCCCN(CCO)CCCNc2ccc(S(=O)(=O)NC(=O)c3ccc(N4CCN(CC5=C(c6ccc(Cl)cc6)CC(C)(C)CC5)CC4)cc3Oc3cnc4[nH]ccc4c3)cc2S(=O)(=O)C(F)(F)F)C(C)(C)C)cc1` [I-100]: the IC50 is more than 30000 nM with Caki-2 cells and more than 3000 nM in the assay with MOLT-4 cells (Homo sapiens, MOLT-4, 72 h).
`Cc1ncsc1-c1ccc([C@H](C)NC(=O)[C@@H]2C[C@@H](O)CN2C(=O)[C@@H](NC(=O)CCCc2ccc(NCCNc3ccc(S(=O)(=O)NC(=O)c4ccc(N5CCN(CC6=C(c7ccc(Cl)cc7)CC(C)(C)CC6)CC5)cc4Oc4cnc5[nH]ccc5c4)cc3S(=O)(=O)C(F)(F)F)cc2)C(C)(C)C)cc1` [I-101]: the IC50 in the assay on Caki-2 cells was more than 30000 nM; with MOLT-4 cells (Homo sapiens, MOLT-4, 72 h) it was more than 3000 nM.
On the same counts, the results for `C#Cc1ccc([C@H](C)NC(=O)[C@@H]2C[C@@H](O)CN2C(=O)[C@@H](NC(=O)CCCCCC(=O)N2CCN(CCCNc3ccc(S(=O)(=O)NC(=O)c4ccc(N5CCN(CC6=C(c7ccc(Cl)cc7)CC(C)(C)CC6)CC5)cc4Oc4cnc5[nH]ccc5c4)cc3S(=O)(=O)C(F)(F)F)CC2)C(C)(C)C)c(OC)c1` [I-103] are more than 30000 nM and 100 to 1000 nM.
In the same order, the values of `C#Cc1ccc(CNC(=O)[C@@H]2C[C@@H](O)CN2C(=O)[C@@H](NC(=O)C2(F)CC2)C(C)(C)C)c(OCCCCCCC(=O)N2CCN(CCCNc3ccc(S(=O)(=O)NC(=O)c4ccc(N5CCN(CC6=C(c7ccc(Cl)cc7)CC(C)(C)CC6)CC5)cc4Oc4cnc5[nH]ccc5c4)cc3S(=O)(=O)C(F)(F)F)CC2)c1` [I-104] are more than 30000 nM and more than 3000 nM.
On the same counts, the results for `Cc1ncsc1-c1ccc([C@H](C)NC(=O)[C@@H]2C[C@@H](O)CN2C(=O)[C@@H](NC(=O)CCCCCC(=O)N2CC3(CN(CCCNc4ccc(S(=O)(=O)NC(=O)c5ccc(N6CCN(CC7=C(c8ccc(Cl)cc8)CC(C)(C)CC7)CC6)cc5Oc5cnc6[nH]ccc6c5)cc4S(=O)(=O)C(F)(F)F)C3)C2)C(C)(C)C)cc1` [I-107] are more than 30000 nM and 100 to 1000 nM.
For the compound `Cc1ncsc1-c1ccc([C@H](C)NC(=O)[C@@H]2C[C@@H](O)CN2C(=O)[C@@H](NC(=O)CCCC(=O)N2CCN(CC[C@H](CSc3ccccc3)Nc3ccc(S(=O)(=O)NC(=O)c4ccc(N5CCC([C@@H](O)c6ccccc6-c6ccc(Cl)cc6)CC5)cc4)cc3S(=O)(=O)C(F)(F)F)CC2)C(C)(C)C)cc1` [I-110], the IC50 in the assay on Caki-2 cells was more than 30000 nM; in the assay with MOLT-4 cells (Homo sapiens, MOLT-4, 72 h), 100 to 1000 nM.
On the same counts, the results for `Cc1ncsc1-c1ccc([C@H](C)NC(=O)[C@@H]2C[C@@H](O)CN2C(=O)[C@@H](NC(=O)CCCCCC(=O)N2CCN(Cc3ccc(-c4ccc(Cl)cc4)c([C@H](O)C4CCN(c5ccc(C(=O)NS(=O)(=O)c6ccc(NCCCN(C)C)c(S(=O)(=O)C(F)(F)F)c6)c(Oc6cnc7[nH]ccc7c6)c5)CC4)c3)CC2)C(C)(C)C)cc1` [I-111] are more than 30000 nM and more than 3000 nM.
In the same order, the values of `Cc1ncsc1-c1ccc([C@H](C)NC(=O)[C@@H]2C[C@@H](O)CN2C(=O)[C@@H](NC(=O)CCCCCC(=O)N2CCN(Cc3ccc(-c4ccc(Cl)cc4)c([C@@H](O)C4CCN(c5ccc(C(=O)NS(=O)(=O)c6ccc(NCCCN(C)C)c(S(=O)(=O)C(F)(F)F)c6)c(Oc6cnc7[nH]ccc7c6)c5)CC4)c3)CC2)C(C)(C)C)cc1` [I-112] are more than 30000 nM and more than 3000 nM.
Take `Cc1ncsc1-c1ccc([C@H](C)NC(=O)[C@@H]2C[C@@H](O)CN2C(=O)[C@@H](NC(=O)CNCCCNc2ccc(S(=O)(=O)NC(=O)c3ccc(N4CCN(CC5=C(c6ccc(Cl)cc6)CC(C)(C)CC5)CC4)cc3Oc3cnc4[nH]ccc4c3)cc2S(=O)(=O)C(F)(F)F)C(C)(C)C)cc1` [I-115]: the IC50 with Caki-2 cells is more than 30000 nM; in the assay on MOLT-4 cells (Homo sapiens, MOLT-4, 72 h) it was more than 3000 nM.
`Cc1ncsc1-c1ccc([C@H](C)NC(=O)[C@@H]2C[C@@H](O)CN2C(=O)[C@@H](NC(=O)C2CCC3(CC2)CCN(CCCNc2ccc(S(=O)(=O)NC(=O)c4ccc(N5CCN(CC6=C(c7ccc(Cl)cc7)CC(C)(C)CC6)CC5)cc4Oc4cnc5[nH]ccc5c4)cc2S(=O)(=O)C(F)(F)F)CC3)C(C)(C)C)cc1` [I-116]: the IC50 with Caki-2 cells is more than 30000 nM; with MOLT-4 cells (Homo sapiens, MOLT-4, 72 h), more than 3000 nM.
On the same counts, the results for `Cc1ncsc1-c1ccc([C@H](C)NC(=O)[C@@H]2C[C@@H](O)CN2C(=O)[C@@H](NC(=O)C#CC2CCN(CCCNc3ccc(S(=O)(=O)NC(=O)c4ccc(N5CCC([C@@H](O)c6ccccc6-c6ccc(Cl)cc6)CC5)cc4Oc4cnc5[nH]ccc5c4)cc3S(=O)(=O)C(F)(F)F)CC2)C(C)(C)C)cc1` [I-117] are more than 30000 nM and more than 3000 nM.
In the same order, the values of `Cc1ncsc1-c1ccc([C@H](C)NC(=O)[C@@H]2C[C@@H](O)CN2C(=O)[C@@H](NC(=O)CCC(=O)N2CCN(CC[C@H](CSc3ccccc3)Nc3ccc(S(=O)(=O)NC(=O)c4ccc(N5CCC([C@@H](O)c6ccccc6-c6ccc(Cl)cc6)CC5)cc4)cc3S(=O)(=O)C(F)(F)F)CC2)C(C)(C)C)cc1` [I-119] are more than 30000 nM and more than 3000 nM.
With `Cc1ncsc1-c1ccc([C@H](C)NC(=O)[C@@H]2C[C@@H](O)CN2C(=O)[C@@H](NC(=O)C2CCN(c3ccc(NC(=O)c4ccc(-c5ccc(Cl)cc5)c([C@@H](O)C5CCN(c6ccc(C(=O)NS(=O)(=O)c7ccc(N[C@H](CCN(C)CCO)CSc8ccccc8)c(S(=O)(=O)C(F)(F)F)c7)cc6)CC5)c4)cc3)CC2)C(C)(C)C)cc1` [I-123], the IC50 is more than 30000 nM with Caki-2 cells and more than 3000 nM in the assay with MOLT-4 cells (Homo sapiens, MOLT-4, 72 h).
`Cc1ncsc1-c1ccc([C@H](C)NC(=O)[C@@H]2C[C@@H](O)CN2C(=O)[C@@H](NC(=O)CCC2CCN(CCCNc3ccc(S(=O)(=O)NC(=O)c4ccc(N5CCN([C@@H](O)c6ccccc6-c6ccc(Cl)cc6)CC5)cc4Oc4cnc5[nH]ccc5c4)cc3S(=O)(=O)C(F)(F)F)CC2)C(C)(C)C)cc1` [I-128]: the IC50 in the assay on Caki-2 cells is more than 30000 nM; with MOLT-4 cells (Homo sapiens, MOLT-4, 72 h), more than 3000 nM.
As for `Cc1ncsc1-c1ccc([C@H](C)NC(=O)[C@@H]2C[C@@H](O)CN2C(=O)[C@@H](NC(=O)CCC2CCN(CCCNc3ccc(S(=O)(=O)NC(=O)c4ccc(N5CCN([C@H](O)c6ccccc6-c6ccc(Cl)cc6)CC5)cc4Oc4cnc5[nH]ccc5c4)cc3S(=O)(=O)C(F)(F)F)CC2)C(C)(C)C)cc1` [I-129], the IC50 was more than 30000 nM in the assay with Caki-2 cells and more than 3000 nM in the assay on MOLT-4 cells (Homo sapiens, MOLT-4, 72 h).
On to `Cc1ncsc1-c1ccc([C@H](C)NC(=O)[C@@H]2C[C@@H](O)CN2C(=O)[C@@H](NC(=O)CCCCCC(=O)N2CCN(C[C@]3(C)CCC(c4ccc(Cl)cc4)=C(CN4CCN(c5ccc(C(=O)NS(=O)(=O)c6ccc(NCCCN7CCOCC7)c(S(=O)(=O)C(F)(F)F)c6)c(Oc6cnc7[nH]ccc7c6)c5)CC4)C3)CC2)C(C)(C)C)cc1` [I-130], for which the IC50 in the assay with Caki-2 cells was more than 30000 nM; in the assay with MOLT-4 cells it was 1000 to 3000 nM.

These data come from patent US20260092057A1, “BCL-XL/BCL-2 DEGRADERS AND USES THEREOF” (Kymera Therapeutics, Inc., priority 2022, published 2026).
